In assay [1] the target is T1, ALK2 R206H (GST-tagged mutant ALK2) (Homo sapiens, UniProt Q04771, R206H).
T1 construct: purchased Carna Bioscience or ThermoFisher 09-148 or PV6232
T1 sequence (Q04771 21-509 R206H): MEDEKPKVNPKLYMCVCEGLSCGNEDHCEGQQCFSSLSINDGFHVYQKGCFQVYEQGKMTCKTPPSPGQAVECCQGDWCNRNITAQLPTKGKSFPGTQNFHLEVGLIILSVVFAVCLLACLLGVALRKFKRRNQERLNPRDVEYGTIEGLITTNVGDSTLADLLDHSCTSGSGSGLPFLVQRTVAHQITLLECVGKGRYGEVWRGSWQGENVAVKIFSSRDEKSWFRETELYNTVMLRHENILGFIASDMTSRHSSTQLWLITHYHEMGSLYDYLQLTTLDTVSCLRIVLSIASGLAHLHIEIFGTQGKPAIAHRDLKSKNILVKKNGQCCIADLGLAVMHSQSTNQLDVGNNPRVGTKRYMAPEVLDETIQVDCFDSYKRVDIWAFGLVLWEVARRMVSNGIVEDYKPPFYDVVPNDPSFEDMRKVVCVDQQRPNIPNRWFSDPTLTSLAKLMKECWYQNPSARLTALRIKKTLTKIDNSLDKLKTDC
As to the kind of experiment: ALK binding assay (LANTHASCREEN TR-FRET competitive binding, displacement of Kinase Tracer 178). The following applies: ALK2 R206H, LANTHASCREEN TR-FRET competitive binding; read-out: Binding Assay (IC50). Background: TR-FRET usually uses a lanthanide donor and a delayed reading to cut background.

Assay [2] deals with T2, human ALK2 R206H (Homo sapiens, UniProt Q04771, R206H).
T2 construct: expressed in transfected cells; host or cells: HEK293 (ATCC CRL1573), lentivirus transduction, blasticidin selection
T2 sequence (Q04771 21-509 R206H): T1 sequence (Q04771 21-509 R206H)
As to the kind of experiment: Cell-based ALK2-R206H cell activity assay (Smad1-Ser463/Ser465 phosphorylation by AlphaLISA in HEK293-ALK2-R206H cells). The following applies: read-out: Cell Line (Cell Assay IC50). The procedure, abridged: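 Stable HEK293 cells expressing C-terminally FLAG-tagged human ALK2 R206H (lentiviral, blasticidin-selected) were treated with compounds in 10-point, 3-fold dilutions from 10 μM or 1 μM top, in duplicate. Smad1 Ser463/Ser465 phosphorylation was read by AlphaLISA.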
(Alpha assays give light when donor and acceptor beads are brought close together.)

A value given as a limit tells only on which side of the number the result lay.

Consider `COC1(c2ccc(-c3cc4c(N5CCN(C(=O)NC(C)C)CC5)ccnn4c3)cc2)CN(C(C)C)C1` [Compound 593], for which the IC50 – broadly, the concentration that inhibits the measured activity by half – in assay [1] was less than 10 nM; in assay [2], less than 100 nM.
For the compound `CC(C)NC(=O)N1CCN(c2ccnn3cc(-c4ccc(C5COCCN5C(C)C)cc4)cc23)CC1` (stereo not drawn) [Compound 594], the IC50 was less than 10 nM in assay [1] and less than 100 nM in assay [2].
As for `CC(C)NC(=O)N1CCN(c2ccnn3cc(-c4ccc([C@@]5(O)CCN(C(C)C)C5)cc4)cc23)CC1` [Compound 595], the IC50 is less than 10 nM in assay [1] and less than 100 nM in assay [2].
For `CC(C)NC(=O)N1CCN(c2ccnn3cc(-c4ccc([C@]5(O)CCN(C(C)C)C5)cc4)cc23)CC1` [Compound 596], the IC50 in assay [1] was less than 10 nM; in assay [2] it was 100 to 500 nM.
On to `CCOC(=O)N1CCN(c2ccnn3cc(-c4ccc([C@@]5(C)CN(C(C)C)CCN5)cc4)cc23)CC1` [Compound 597], for which the results for the IC50 in assay [1] and in assay [2] were less than 10 nM and less than 100 nM, respectively.
Taken in the same sequence, the figures for `CCOC(=O)N1CCN(c2ccnn3cc(-c4ccc([C@]5(C)CN(C(C)C)CCN5)cc4)cc23)CC1` [Compound 598] were less than 10 nM and less than 100 nM.
`COC1(c2ccc(-c3cc4c(N5CCN(C(=O)OC6COC6)CC5)ccnn4c3)cc2)CCNCC1` [Compound 599]: the results for the IC50 in assay [1] and in assay [2] were less than 10 nM and less than 100 nM, respectively.
In the case of `CO[C@@]1(c2ccc(-c3cc4c(N5CCN(C(=O)OC6COC6)CC5)ccnn4c3)cc2)CCCNC1` [Compound 600], the IC50 is less than 10 nM in assay [1] and less than 100 nM in assay [2].
Consider `CO[C@]1(c2ccc(-c3cc4c(N5CCN(C(=O)OC6COC6)CC5)ccnn4c3)cc2)CCCNC1` [Compound 601], for which the IC50 in assay [1] is less than 10 nM; in assay [2] it was less than 100 nM.
Turning to `CCOC(=O)N1CCN(c2ccnn3cc(-c4ccc([C@@]5(OC)CCN(C(C)C)C5)cc4)cc23)CC1` [Compound 603], the IC50 in assay [1] is less than 10 nM; in assay [2], less than 100 nM.
Taken in the same sequence, the figures for `CCOC(=O)N1CCN(c2ccnn3cc(-c4ccc([C@]5(OC)CCN(C(C)C)C5)cc4)cc23)CC1` [Compound 604] were less than 10 nM and less than 100 nM.
Take `CCNC(=O)N1CCN(c2ccnn3cc(-c4ccc([C@]5(O)CCCN(C(C)C)C5)cn4)cc23)CC1` [Compound 605]: the IC50 was less than 10 nM in assay [1] and less than 100 nM in assay [2].
Taken in the same sequence, the figures for `CCNC(=O)N1CCN(c2ccnn3cc(-c4ccc([C@@]5(O)CCCN(C(C)C)C5)cn4)cc23)CC1` [Compound 606] were less than 10 nM and less than 100 nM.
On the same counts, the results for `CC(C)NC(=O)N1CCN(c2ccnn3cc(-c4ccc([C@@]5(O)CCN(C(C)C)C5)cn4)cc23)CC1` [Compound 608] are less than 10 nM and 100 to 500 nM.
On to `COC1(c2ccc(-c3cc4c(N5CCN(C(=O)OC6COC6)CC5)ccnn4c3)nc2)CCNCC1` [Compound 609], for which the IC50 in assay [1] is less than 10 nM; in assay [2], less than 100 nM.
As to `CCOC(=O)N1CCN(c2ccnn3cc(-c4ccc([C@]5(F)CCCN(C(C)C)C5)cc4)cc23)CC1` [Compound 610], the IC50 in assay [1] is less than 10 nM; in assay [2] it was less than 100 nM.
Taken in the same sequence, the figures for `CCOC(=O)N1CCN(c2ccnn3cc(-c4ccc([C@@]5(F)CCCN(C(C)C)C5)cc4)cc23)CC1` [Compound 611] were less than 10 nM and less than 100 nM.
On the same counts, the results for `CCOC(=O)N1CCN(c2ccnn3cc(-c4ccc([C@]5(F)CCCN(C(C)C)C5)cn4)cc23)CC1` [Compound 613] are less than 10 nM and less than 100 nM.
In the case of `CCOC(=O)N1CCN(c2ccnn3cc(-c4ccc([C@@]5(F)CCCN(C(C)C)C5)cn4)cc23)CC1` [Compound 614], the figures for the IC50 in assay [1] and in assay [2] were less than 10 nM and less than 100 nM, respectively.
`CC(C)N1CCC(C#N)(c2ccc(-c3cc4c(N5CCN(C(=O)C6CC6)CC5)ccnn4c3)cc2)CC1` [Compound 615]: the values for the IC50 in assay [1] and in assay [2] were less than 10 nM and less than 100 nM, respectively.
With `CC(C)N1CC(O)(c2ccc(-c3cc4c(N5CCN(C(=O)C6CC(C#N)C6)CC5)ccnn4c3)cc2)C1` (stereo not drawn) [Compound 616], the IC50 in assay [1] is less than 10 nM; in assay [2], less than 100 nM.
`CC(C)N1CCC[C@@H](c2ccc(-c3cc4c(N5CCN(C(=O)NCCC#N)CC5)ccnn4c3)cc2)C1` [Compound 617]: the IC50 is less than 10 nM in assay [1] and 100 to 500 nM in assay [2].
In the case of `CC(C)N1CCC[C@H](c2ccc(-c3cc4c(N5CCN(C(=O)NCCC#N)CC5)ccnn4c3)cc2)C1` [Compound 618], the IC50 in assay [1] was less than 10 nM; in assay [2], less than 100 nM.
Turning to `CC(C)N1CCN(C)[C@](C)(c2ccc(-c3cc4c(N5CCN(C(=O)C6CC6)CC5)ccnn4c3)cc2)C1` [Compound 619], the IC50 in assay [1] is less than 10 nM; in assay [2] it was less than 100 nM.
For the compound `CC(C)N1CCN(C)[C@@](C)(c2ccc(-c3cc4c(N5CCN(C(=O)C6CC6)CC5)ccnn4c3)cc2)C1` [Compound 620], the IC50 in assay [1] is less than 10 nM; in assay [2], less than 100 nM.
Turning to `CC(C)N1CCC(c2ccc(-c3cc4c(N5CCN(C(=O)OC6CCC6)CC5)ccnn4c3)cc2)CC1` [Compound 621], the figures for the IC50 in assay [1] and in assay [2] were less than 10 nM and 100 to 500 nM, respectively.
Taken in the same sequence, the figures for `COC(=O)NC1(c2ccc(-c3cc4c(N5CCN(C(=O)C6CC6)CC5)ccnn4c3)cc2)CCNCC1` [Compound 622] were less than 10 nM and more than 500 nM.
For `CC(C)N1CC2(CN(c3ccc(-c4cc5c(N6CCN(C(=O)[C@H]7C[C@@H]7F)CC6)ccnn5c4)cc3)C2)C1` [Compound 623], the figures for the half-maximal inhibitory concentration (IC50) in assay [1] and in assay [2] were less than 10 nM and 100 to 500 nM, respectively.
As for `COC1(c2ccc(-c3cc4c(N5CCN(C(=O)C6CC6)CC5)ccnn4c3)nc2)CCN(C(C)C)CC1` [Compound 624], the IC50 is less than 10 nM in assay [1] and less than 100 nM in assay [2].
As for `CO[C@@]1(c2ccc(-c3cc4c(N5CCN(C(=O)C6CC6)CC5)ccnn4c3)nc2)CCCN(C(C)C)C1` [Compound 625], the IC50 in assay [1] was less than 10 nM; in assay [2], less than 100 nM.
Taken in the same sequence, the figures for `CO[C@]1(c2ccc(-c3cc4c(N5CCN(C(=O)C6CC6)CC5)ccnn4c3)nc2)CCCN(C(C)C)C1` [Compound 626] were less than 10 nM and less than 100 nM.
Turning to `CC(C)N1CCC(c2ccc(-c3cc4c(N5CCN(C(=O)NC6COC6)CC5)ccnn4c3)cc2)CC1` [Compound 627], the 50% inhibitory concentration (IC50) in assay [1] is less than 10 nM; in assay [2], less than 100 nM.
Turning to `CC(C)NC(=O)N1CCN(c2ccnn3cc(-c4ccc(C5(C)CCN(C(C)C)CC5)cc4)cc23)CC1` [Compound 628], the IC50 was less than 10 nM in assay [1] and less than 100 nM in assay [2].
On to `CC(C)N1CCC(c2ccc(-c3cc4c(N5CCN(C(=O)OC6COC6)CC5)ccnn4c3)cc2)CC1` [Compound 629], for which the results for the IC50 in assay [1] and in assay [2] were less than 10 nM and less than 100 nM, respectively.
On to `CC(C)N1CCC[C@H](c2ccc(-c3cc4c(N5CCN(C(=O)OC6COC6)CC5)ccnn4c3)cc2)C1` [Compound 630], for which the figures for the IC50 in assay [1] and in assay [2] were less than 10 nM and less than 100 nM, respectively.
In the case of `CC(C)N1CCC[C@@H](c2ccc(-c3cc4c(N5CCN(C(=O)OC6COC6)CC5)ccnn4c3)cc2)C1` [Compound 631, (S)-oxetan-3-yl 4-(6-(4-(1-isopropylpiperidin-3-yl)phenyl)pyrrolo[1,2-b]pyridazin-4-yl)piperazine-1-carboxylate], the results for the IC50 in assay [1] and in assay [2] were less than 10 nM and less than 100 nM, respectively.

(Values after patent publication US10233186B2, “Inhibitors of activin receptor-like kinase” (BLUEPRINT MEDICINES CORPORATION, priority 2016, dated 2019).)
